Source: ChEMBL document CHEMBL6120970, “Discovery and Functional Characterization of a Potent, Selective, and Metabolically Stable PROTAC of the Protein Kinases DYRK1A and DYRK1B” (J Med Chem, 2024)
≈ marks a conversion by molar mass, not a printed value. Calls of active or inactive are those of the source. The calls are words filed in the database; no cut-off is given here.

Columns and labels:
[1] = Solubility of the compound in FeSSIF buffer; type: physicochemical
[2] = Half life in mouse at 10 mg/kg, po administered as single dose; type: ADME, organism-based; conditions: in vivo
[3] = target: T1, Protein cereblon/Dual specificity tyrosine-phosphorylation-regulated kinase 1A (Homo sapiens, UniProt Q13627+Q96SW2); assay: PROTAC activity at CRBN/DYRK1A in Flp-In-T-REx-293 cells overexpressing GFP-DYRK1A assessed as maximal reduction of GFP fluorescence at 1 uM measured upto 6 hrs by fluorescence based phase contrast microscopy analysis relative to control; type: cell-based
[4] = target: T1, Protein cereblon/Dual specificity tyrosine-phosphorylation-regulated kinase 1A; assay: Competitive binding affinity to CRBN/DYRK1A (unknown origin) assessed as dissociation constant; type: protein assay
[5] = MRT in mouse at 1 mg/kg, iv administered as single dose; type: ADME, organism-based; conditions: in vivo
[6] = system: HEK293; assay: Downregulation of DYRK1B mRNA expression in HEK293 cells at 100 nM measured after 24 hrs by qRT-PCR analysis; type: functional, cell-based; conditions: Homo sapiens
[7] = target: T2, Protein cereblon/Dual specificity tyrosine-phosphorylation-regulated kinase 1B (Homo sapiens) (UniProt Q9Y463+Q96SW2); assay: PROTAC activity at CRBN/DYRK1B in SH-SY5Y cells assessed as induction of degradation of DYRK1B at 100 nM incubated for 24 hrs; type: cell-based
[8] = target: T1, Protein cereblon/Dual specificity tyrosine-phosphorylation-regulated kinase 1A; assay: PROTAC activity at CRBN/DYRK1A in Flp-In-T-REx-293 cells overexpressing GFP-DYRK1A assessed as half life at 1 uM measured upto 6 hrs by fluorescence based phase contrast microscopy analysis; type: cell-based
[9] = target: T2, Protein cereblon/Dual specificity tyrosine-phosphorylation-regulated kinase 1B (Homo sapiens); assay: PROTAC activity at CRBN/DYRK1B in HEK293 cells assessed as induction of degradation of DYRK1B by measuring maximum efficacy at 1 to 10000 nM incubated for 24 hrs relative to control; type: cell-based; conditions: dose 1-10000 nM
[10] = Clearance in mouse at 1 mg/kg, iv administered as single dose; type: ADME, organism-based; conditions: in vivo
[11] = target: T1, Protein cereblon/Dual specificity tyrosine-phosphorylation-regulated kinase 1A; assay: PROTAC activity at CRBN/DYRK1A in HEK293 cells assessed as induction of degradation of DYRK1A at 100 nM pretreated with CB-5083 followed by compound addition and incubated for 8 hrs; type: cell-based
[12] = target: T1, Protein cereblon/Dual specificity tyrosine-phosphorylation-regulated kinase 1A; assay: PROTAC activity at CRBN/DYRK1A in human A549 cells assessed as induction of degradation of DYRK1A at 100 nM incubated for 24 hrs; type: cell-based
[13] = Metabolic stability in mouse liver microsomes assessed as half life; type: ADME, Microsome
[14] = target: T1, Protein cereblon/Dual specificity tyrosine-phosphorylation-regulated kinase 1A; assay: PROTAC activity at CRBN/DYRK1A in HEK293 cells assessed as induction of degradation of DYRK1A at 100 nM incubated for 24 hrs; type: cell-based
[15] = Metabolic stability in rat liver microsomes assessed as intrinsic clearance; type: ADME, Microsome; conditions: read-out: CLH
[16] = Permeability of the compound in human Caco-2 cells across apical to basolateral side; type: ADME, cell-based; conditions: read-out: permeability
[17] = Permeability of the compound in human Caco-2 cells across basolateral side to apical side; type: ADME, cell-based; conditions: read-out: permeability
[18] = target: T2, Protein cereblon/Dual specificity tyrosine-phosphorylation-regulated kinase 1B (Homo sapiens); assay: PROTAC activity at CRBN/DYRK1B in HEK293 cells overexpressing DYRK1B-p69 assessed as induction of degradation of DYRK1B at 1 uM measured after 24 hrs by Western blot analysis; type: cell-based
[19] = target: T1, Protein cereblon/Dual specificity tyrosine-phosphorylation-regulated kinase 1A; assay: PROTAC activity at CRBN/DYRK1A in human SH-SY5Y cells assessed as induction of degradation of DYRK1A at 100 nM incubated for 8 hrs relative to control; type: cell-based
[20] = target: T1, Protein cereblon/Dual specificity tyrosine-phosphorylation-regulated kinase 1A; assay: PROTAC activity at CRBN/DYRK1A in HEK293 cells assessed as induction of degradation of DYRK1A at 100 nM measured within 8 hrs by Western blot analysis; type: cell-based
[21] = Solubility of the compound in PBS buffer; type: physicochemical
[22] = target: T1, Protein cereblon/Dual specificity tyrosine-phosphorylation-regulated kinase 1A; assay: PROTAC activity at CRBN/DYRK1A in human PANC-1 cells assessed as induction of degradation of DYRK1A at 100 nM incubated for 8 hrs; type: cell-based
[23] = Metabolic stability in human liver microsomes assessed as half life; type: ADME, Microsome
[24] = AUC infinity in mouse at 10 mg/kg, po administered as single dose; type: ADME, organism-based; conditions: in vivo
[25] = target: T2, Protein cereblon/Dual specificity tyrosine-phosphorylation-regulated kinase 1B (Homo sapiens); assay: PROTAC activity at CRBN/DYRK1B in HEK293 cells assessed as induction of degradation of DYRK1B at 100 nM pretreated with leucettine-41 followed by compound addition and incubated for 8 hrs; type: cell-based
[26] = target: T1, Protein cereblon/Dual specificity tyrosine-phosphorylation-regulated kinase 1A; assay: PROTAC activity at CRBN/DYRK1A in HEK293 cells assessed as induction of degradation of DYRK1A by measuring maximum efficacy at 1 to 10000 nM incubated for 24 hrs relative to control; type: cell-based; conditions: dose 1-10000 nM
[27] = Plasma protein binding (unknown origin); type: ADME, cell-free; conditions: read-out: PPB
[28] = system: SH-SY5Y; assay: Cytotoxicity against human SH-SY5Y cells assessed as reduction in cell viability at 100 nM measured upto 96 hrs in presence of cisplatin by real-time cell analysis; type: functional, cell-based
[29] = AUC last in mouse at 10 mg/kg, ip administered as single dose; type: ADME, organism-based; conditions: in vivo
[30] = target: T1, Protein cereblon/Dual specificity tyrosine-phosphorylation-regulated kinase 1A; assay: PROTAC activity at CRBN/DYRK1A in HEK293 cells assessed as induction of degradation of DYRK1A at 100 nM measured for 48 hrs by Western blot analysis; type: cell-based
[31] = target: T1, Protein cereblon/Dual specificity tyrosine-phosphorylation-regulated kinase 1A; assay: PROTAC activity at CRBN/DYRK1A in human A549 cells assessed as induction of degradation of DYRK1A at 100 nM incubated for 8 hrs relative to control; type: cell-based
[32] = target: T2, Protein cereblon/Dual specificity tyrosine-phosphorylation-regulated kinase 1B (Homo sapiens); assay: PROTAC activity at CRBN/DYRK1B in HEK293 cells assessed as induction of degradation of DYRK1B at 100 nM measured within 8 hrs by Western blot analysis; type: cell-based
[33] = Metabolic stability in human liver microsomes assessed as intrinsic clearance; type: ADME, Microsome; conditions: read-out: CLH
[34] = target: T1, Protein cereblon/Dual specificity tyrosine-phosphorylation-regulated kinase 1A; assay: PROTAC activity at CRBN/DYRK1A in human OVCAR-3 cells assessed as induction of degradation of DYRK1A at 100 nM incubated for 8 hrs; type: cell-based
[35] = target: T1, Protein cereblon/Dual specificity tyrosine-phosphorylation-regulated kinase 1A; assay: PROTAC activity at CRBN/HibiT-tagged DYRK1A in Flp-In-T-REx-293 cells assessed as induction of degradation of DYRK1A by measuring maximum efficacy at 1 uM measured after 24 hrs by NanoBiT luciferase assay relative to control; type: cell-based
[36] = Half life in mouse blood; type: ADME, tissue-based
[37] = target: T2, Protein cereblon/Dual specificity tyrosine-phosphorylation-regulated kinase 1B (Homo sapiens); assay: PROTAC activity at CRBN/DYRK1B in Flp-In-T-REx-293 cells overexpressing GFP-DYRK1B assessed as maximal reduction in GFP fluorescence at 1 uM measured upto 6 hrs by fluorescence based phase contrast microscopy analysis relative to control; type: cell-based
[38] = target: T1, Protein cereblon/Dual specificity tyrosine-phosphorylation-regulated kinase 1A; assay: PROTAC activity at CRBN/DYRK1A in SH-SY5Y cells assessed as induction of degradation of DYRK1A at 100 nM incubated for 24 hrs; type: cell-based
[39] = target: T1, Protein cereblon/Dual specificity tyrosine-phosphorylation-regulated kinase 1A; assay: PROTAC activity at CRBN/DYRK1A in human HeLa cells assessed as induction of degradation of DYRK1A at 100 nM incubated for 8 hrs; type: cell-based
[40] = Tmax in mouse at 10 mg/kg, ip administered as single dose; type: ADME, organism-based; conditions: in vivo
[41] = Permeability of the compound by PAMPA method; type: ADME; conditions: read-out: permeability

Cc1nc2ccc(-c3ccnc(N)c3)nc2n1-c1ccc(N2CCN(CC#Cc3ccc(N4CCC(C(=O)N5CCC(n6cc(CNc7cccc8c7C(=O)N(C7CCC(=O)NC7=O)C8=O)cn6)CC5)CC4)nc3)CC2)c(F)c1 (stereo unspecified)
solubility [1]: 2.09 µM (≈ 2.22 µg/mL) | half-life [2]: 2.11 h | Emax [3]: 98% | Kd [4]: 6.3 nM | MRT [5]: 1.4 h | Activity [6]: inactive | Activity [7]: Active | T1/2 [8]: 0.95 h | Emax [9]: 50% | clearance [10]: 7.1 mL/min/kg | Activity [11]: inactive | Activity [12]: Active | half-life [13]: 7.38 h | Activity [14]: Active | CLint scaled [15]: 14 mL/min/kg | Papp A→B [16]: < 0.27 ×10⁻⁶ cm/s | Papp B→A [17]: < 0.243 ×10⁻⁶ cm/s | Activity [18]: Active | Activity [19]: 100% | Activity [20]: Active | solubility [21]: < 0.009 µM | Activity [22]: Active; Compound Showed Partial Degradation | half-life [23]: 2.28 h | AUC(0-inf) [24]: 64 ng·h/mL | Activity [25]: inactive | Emax [26]: 90% | fraction unbound [27]: < 0.0062 | Activity [28]: Active; Compound Showed Moderate Toxicity | AUC(0-t) [29]: 26300 ng·h/mL | Activity [30]: Active | Activity [31]: 100% | Activity [32]: Active | CLint scaled [33]: 10.1 mL/min/kg | Activity [34]: inactive | Emax [35]: 84% | half-life [36]: 15.2 h | Emax [37]: 86% | Activity [38]: Active | Activity [39]: inactive | Tmax [40]: 0.25 h | Papp [41]: < 0.005 ×10⁻⁶ cm/s
